Test results published in PubChem BioAssay AID248 (DTP/NCI, 2004).
Values joined by “and” are separate entries in the source; they are usually repeats but may differ in a detail not shown here. Equal entries are not always repeated. Inconclusive results and toxic doses are left out. Rule as the data show it: active = T/C of 150% or more; inactive = T/C below 125%.

Tested on: L1210 leukemia ip in BDF1 mice, survival T/C
Experiment: NCI In Vivo Anticancer Drug Screen. Data for tumor model L1210 Leukemia (intraperitoneal) in B6D2F1 (BDF1) mice
Settings: endpoint: mean survival time, higher = longer survival
How it was run: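 Read-out is survival time, reported as the treated-group measurement over the vehicle-control measurement.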

[1] = dose: 100.0 mg/kg/injection, schedule: Q01DX001 (ip), vehicle: Klucel (hydroxypropylcellulose) (HPC)
[2] = dose: 100.0 mg/kg/injection, schedule: Q04DX003 (ip), vehicle: Klucel (hydroxypropylcellulose) (HPC)
[3] = dose: 200.0 mg/kg/injection, schedule: Q01DX001 (ip), vehicle: Klucel (hydroxypropylcellulose) (HPC)
[4] = dose: 200.0 mg/kg/injection, schedule: Q04DX003 (ip), vehicle: Klucel (hydroxypropylcellulose) (HPC)
[5] = dose: 400.0 mg/kg/injection, schedule: Q04DX003 (ip), vehicle: Klucel (hydroxypropylcellulose) (HPC)
[6] = dose: 100.0 mg/kg/injection, schedule: Q04DX002 (ip), vehicle: Klucel (hydroxypropylcellulose) (HPC)
[7] = dose: 50.0 mg/kg/injection, schedule: Q01DX009 (ip), vehicle: saline with Tween-80
[8] = dose: 100.0 mg/kg/injection, schedule: Q01DX009 (ip), vehicle: saline with Tween-80
[9] = dose: 200.0 mg/kg/injection, schedule: Q01DX009 (ip), vehicle: saline with Tween-80
[10] = dose: 100.0 mg/kg/injection, schedule: Q04DX003 (ip), vehicle: saline
[11] = dose: 200.0 mg/kg/injection, schedule: Q04DX003 (ip), vehicle: saline
[12] = dose: 100.0 mg/kg/injection, schedule: Q01DX009 (ip), vehicle: Klucel (hydroxypropylcellulose) (HPC)
[13] = dose: 200.0 mg/kg/injection, schedule: Q01DX009 (ip), vehicle: Klucel (hydroxypropylcellulose) (HPC)
[14] = dose: 100.0 mg/kg/injection, schedule: Q04DX003 (ip), vehicle: saline with Tween-80
[15] = dose: 200.0 mg/kg/injection, schedule: Q04DX003 (ip), vehicle: saline with Tween-80
[16] = dose: 400.0 mg/kg/injection, schedule: Q04DX003 (ip), vehicle: saline with Tween-80

Measured: T/C

CCC(C(=O)c1ccc(Cl)cc1)C(O)(C(F)(F)F)C(F)(F)F (stereo not drawn)
inactive: [1] 95 % of control | [2] 102 % of control | [3] 98 % of control | [4] 98 % of control | dose: 400.0 mg/kg/injection, schedule: Q01DX001 (ip), vehicle: Klucel (hydroxypropylcellulose) (HPC) 112 % of control | [5] 93 % of control

Cc1ccc(S(=O)(=O)OCC2OC(n3ccc(=O)[nH]c3=O)C3OC(C)(C)OC23)cc1 (stereo not drawn)
inactive: dose: 100.0 mg/kg/injection, schedule: Q01DX005 (ip), vehicle: saline 122 % of control

Cc1cc(C)c(NC(=O)c2cccc([N+](=O)[O-])c2C(=O)O)cc1C
inactive: [6] 105 % of control | dose: 200.0 mg/kg/injection, schedule: Q04DX002 (ip), vehicle: Klucel (hydroxypropylcellulose) (HPC) 96 % of control | dose: 400.0 mg/kg/injection, schedule: Q04DX002 (ip), vehicle: Klucel (hydroxypropylcellulose) (HPC) 108 % of control

COC1/C=C\CC2=CCCC=C2CC1 (stereo not drawn)
inactive: [7] 112 % of control | [8] 123 % of control | [9] 105 % of control

CCCCCCCCCCCCCCCCn1cnc2c(N)ncnc21
inactive: dose: 12.5 mg/kg/injection, schedule: Q01DX005 (ip), vehicle: other 104 % of control | dose: 25.0 mg/kg/injection, schedule: Q01DX005 (ip), vehicle: other 96 % of control | dose: 50.0 mg/kg/injection, schedule: Q01DX005 (ip), vehicle: other 101 % of control | dose: 100.0 mg/kg/injection, schedule: Q01DX005 (ip), vehicle: other 96 % of control | dose: 200.0 mg/kg/injection, schedule: Q01DX005 (ip), vehicle: other 95 % of control

CCC(O)C(CCN(C)C)(C(=O)N(C)C)c1ccccc1 (stereo not drawn)
inactive: dose: 75.0 mg/kg/injection, schedule: Q01DX001 (ip), vehicle: saline 98 % of control | dose: 150.0 mg/kg/injection, schedule: Q01DX001 (ip), vehicle: saline 100 % of control

COc1ccc2c(c1C)CCC1(COC(C)=O)CC(C)(O)C(O)CC21 (stereo not drawn)
inactive: dose: 100.0 mg/kg/injection, schedule: Q01DX009 (ip), vehicle: saline sonified 96 % of control | dose: 200.0 mg/kg/injection, schedule: Q01DX009 (ip), vehicle: saline sonified 94 % of control | dose: 400.0 mg/kg/injection, schedule: Q01DX009 (ip), vehicle: saline sonified 93 % of control

CC(=O)c1ccc(N2CCN(c3ccc(C(C)=O)cc3)CC2)cc1
inactive: [10] 93 % of control | [11] 95 % of control | dose: 400.0 mg/kg/injection, schedule: Q04DX003 (ip), vehicle: saline 98 % of control

CC1(C)CC(N=Cc2ccccc2O)CC(C)(C)N1O.CC1(C)CC(N=Cc2ccccc2O)CC(C)(C)N1O.[Zn]
inactive: dose: 25.0 mg/kg/injection, schedule: Q04DX002 (ip), vehicle: Klucel (hydroxypropylcellulose) (HPC) 91 % of control | dose: 50.0 mg/kg/injection, schedule: Q04DX002 (ip), vehicle: Klucel (hydroxypropylcellulose) (HPC) 91 % of control | [6] 94 % of control

Cc1ccc(S(=O)(=O)N/N=C/Cc2ccccc2)cc1
inactive: dose: 100.0 mg/kg/injection, schedule: Q04DX002 (ip), vehicle: gum acacia 100 % of control | dose: 200.0 mg/kg/injection, schedule: Q04DX002 (ip), vehicle: gum acacia 100 % of control | dose: 400.0 mg/kg/injection, schedule: Q04DX002 (ip), vehicle: gum acacia 100 % of control

CC(CO)NC(=O)C1C=C2c3cccc4[nH]cc(c34)CC2N(C)C1 (stereo not drawn)
inactive: dose: 3.12 mg/kg/injection, schedule: Q04DX003 (ip), vehicle: saline 114 % of control | dose: 6.25 mg/kg/injection, schedule: Q04DX003 (ip), vehicle: saline 114 % of control | dose: 12.5 mg/kg/injection, schedule: Q01DX009 (ip), vehicle: saline 109 % of control | dose: 12.5 mg/kg/injection, schedule: Q04DX003 (ip), vehicle: saline 114 % of control | dose: 25.0 mg/kg/injection, schedule: Q01DX009 (ip), vehicle: saline 95 % of control | dose: 25.0 mg/kg/injection, schedule: Q04DX003 (ip), vehicle: saline 101 % of control | dose: 50.0 mg/kg/injection, schedule: Q01DX009 (ip), vehicle: saline 96 % of control | dose: 50.0 mg/kg/injection, schedule: Q04DX003 (ip), vehicle: saline 103 % of control | dose: 100.0 mg/kg/injection, schedule: Q01DX009 (ip), vehicle: saline 95 % of control | [10] 100 % of control | dose: 200.0 mg/kg/injection, schedule: Q01DX009 (ip), vehicle: saline 96 % of control | [11] 102 % of control

CC12OC1(C)C1(C)C3(C)OC3(C)C21C (stereo not drawn)
inactive: dose: 50.0 mg/kg/injection, schedule: Q01DX009 (ip), vehicle: Klucel (hydroxypropylcellulose) (HPC) 97 % of control | [1] 100 % of control | [12] 96 % of control | [3] 100 % of control | [13] 96 % of control

CN(C)/N=C\c1ccccc1Cl
inactive: dose: 12.5 mg/kg/injection, schedule: Q01DX009 (ip), vehicle: saline with Tween-80 91 % of control | dose: 25.0 mg/kg/injection, schedule: Q01DX009 (ip), vehicle: saline with Tween-80 102 % of control | [7] 100 % of control and 101 % of control | dose: 100.0 mg/kg/injection, schedule: Q01DX001 (ip), vehicle: saline with Tween-80 100 % of control | [14] 101 % of control | dose: 200.0 mg/kg/injection, schedule: Q01DX001 (ip), vehicle: saline with Tween-80 96 % of control | [15] 98 % of control | dose: 400.0 mg/kg/injection, schedule: Q01DX001 (ip), vehicle: saline with Tween-80 117 % of control

CCOC(=O)/C(C#N)=C\c1cc(O)c(O)c(OC)c1
inactive: dose: 50.0 mg/kg/injection, schedule: Q01DX001 (ip), vehicle: carboxymethylcellulose (CMC) 100 % of control | dose: 100.0 mg/kg/injection, schedule: Q01DX001 (ip), vehicle: carboxymethylcellulose (CMC) 92 % of control | dose: 200.0 mg/kg/injection, schedule: Q01DX001 (ip), vehicle: carboxymethylcellulose (CMC) 97 % of control | dose: 400.0 mg/kg/injection, schedule: Q01DX001 (ip), vehicle: carboxymethylcellulose (CMC) 103 % of control

O=C(OC1CCC1)c1ccc(N=Nc2ccccc2)cc1
inactive: dose: 75.0 mg/kg/injection, schedule: Q04DX002 (ip), vehicle: Klucel (hydroxypropylcellulose) (HPC) 102 % of control | dose: 150.0 mg/kg/injection, schedule: Q04DX002 (ip), vehicle: Klucel (hydroxypropylcellulose) (HPC) 102 % of control | dose: 300.0 mg/kg/injection, schedule: Q04DX002 (ip), vehicle: Klucel (hydroxypropylcellulose) (HPC) 86 % of control

Cc1ccc(C[As+](c2ccccc2)(c2ccccc2)c2ccccc2)cc1
inactive: dose: 10.0 mg/kg/injection, schedule: Q01DX001 (ip), vehicle: saline 97 % of control | dose: 20.0 mg/kg/injection, schedule: Q01DX001 (ip), vehicle: saline 96 % of control | dose: 40.0 mg/kg/injection, schedule: Q01DX001 (ip), vehicle: saline 96 % of control

COc1cc(C(=O)CCC(=O)O)c(OC)c(CBr)c1CBr
inactive: dose: 5.0 mg/kg/injection, schedule: Q01DX001 (ip), vehicle: other 101 % of control | dose: 10.0 mg/kg/injection, schedule: Q01DX001 (ip), vehicle: other 110 % of control | dose: 20.0 mg/kg/injection, schedule: Q01DX001 (ip), vehicle: other 101 % of control

CCC(=O)Oc1ccc(/C=N/NC(N)=S)nc1
inactive: dose: 100.0 mg/kg/injection, schedule: Q04DX002 (ip), vehicle: saline with Tween-80 113 % of control

CC(C)C(C(=O)c1ccccc1)c1ccccc1 (stereo not drawn)
inactive: [8] 93 % of control | [14] 99 % of control | [9] 93 % of control | [15] 100 % of control | dose: 400.0 mg/kg/injection, schedule: Q01DX009 (ip), vehicle: saline with Tween-80 104 % of control | [16] 89 % of control

CC(c1ccccc1)C(C#N)c1ccccc1 (stereo not drawn)
inactive: [12] 97 % of control | [2] 97 % of control | [13] 98 % of control | [4] 92 % of control | dose: 400.0 mg/kg/injection, schedule: Q01DX009 (ip), vehicle: Klucel (hydroxypropylcellulose) (HPC) 88 % of control | [5] 89 % of control

CCCCCCCCSCCC(=O)O
inactive: [8] 97 % of control | [14] 97 % of control | [9] 88 % of control | [15] 92 % of control | [16] 94 % of control
